ChEMBL document CHEMBL1649524, “Resistance selection studies comparing the activity of razupenem (PTZ601) to vancomycin and linezolid against eight methicillin-resistant and two methicillin-susceptible Staphylococcus aureus strains” (2009)
Values after ≈ are worked out from the molar mass of the structure shown.

Key:
Format in all cases: functional
[1] = test system: Staphylococcus aureus; experiment: Antimicrobial activity against methicillin-resistant Staphylococcus aureus 547 measured on day 45 by macrodilution method
[2] = test system: Staphylococcus aureus; experiment: Antimicrobial activity against vancomycin-resistant Staphylococcus aureus 510 measured on day 30 by macrodilution method
[3] = test system: Staphylococcus aureus; experiment: Antimicrobial activity against methicillin-susceptible Staphylococcus aureus 543 measured on day 10 by macrodilution method; settings: Staphylococcus aureus, 543, 240 h
[4] = test system: Staphylococcus aureus; experiment: Antimicrobial activity against vancomycin-intermediate Staphylococcus aureus 1287 measured after 10 antibiotic-free subculturing by macrodilution method
[5] = test system: Staphylococcus aureus; experiment: Antimicrobial activity against methicillin-susceptible Staphylococcus aureus 540 measured on day 35 by macrodilution method
[6] = test system: Staphylococcus aureus; experiment: Antimicrobial activity against methicillin-resistant Staphylococcus aureus 525 measured on day 15 by macrodilution method; settings: Staphylococcus aureus, 525, 360 h
[7] = test system: Staphylococcus aureus; experiment: Antimicrobial activity against methicillin-resistant Staphylococcus aureus 547 after 48 passages by macrodilution method
[8] = test system: Staphylococcus aureus; experiment: Antimicrobial activity against vancomycin-intermediate Staphylococcus aureus 1287 measured on day 40 by macrodilution method
[9] = test system: Staphylococcus aureus; experiment: Antimicrobial activity against heterogeneous vancomycin-intermediate Staphylococcus aureus 873 measured on day 50 by macrodilution method
[10] = test system: Staphylococcus aureus; experiment: Antimicrobial activity against vancomycin-resistant Staphylococcus aureus 510 measured on day 25 by macrodilution method; settings: Staphylococcus aureus, 510, 600 h
[11] = test system: Staphylococcus aureus; experiment: Antimicrobial activity against methicillin-resistant Staphylococcus aureus 525 measured on day 45 by macrodilution method
[12] = test system: Staphylococcus aureus; experiment: Antimicrobial activity against heterogeneous vancomycin-intermediate Staphylococcus aureus 873 measured on day 35 by macrodilution method
[13] = test system: Staphylococcus aureus; experiment: Antimicrobial activity against methicillin-susceptible Staphylococcus aureus 540 measured on day 25 by macrodilution method; settings: Staphylococcus aureus, 540, 600 h
[14] = test system: Staphylococcus aureus; experiment: Antimicrobial activity against methicillin-resistant Staphylococcus aureus 547 measured on day 35 by macrodilution method
[15] = test system: Staphylococcus aureus; experiment: Antimicrobial activity against methicillin-resistant Staphylococcus aureus 547 measured on day 15 by macrodilution method; settings: Staphylococcus aureus, 547, 360 h
[16] = test system: Staphylococcus aureus; experiment: Antimicrobial activity against vancomycin-intermediate Staphylococcus aureus 1287 measured on day 25 by macrodilution method; settings: Staphylococcus aureus, 1287, 600 h
[17] = test system: Staphylococcus aureus; experiment: Antimicrobial activity against heterogeneous vancomycin-intermediate Staphylococcus aureus 168 measured on day 40 by macrodilution method
[18] = test system: Staphylococcus aureus; experiment: Antimicrobial activity against methicillin-resistant Staphylococcus aureus 525 measured on day 40 by macrodilution method
[19] = test system: Staphylococcus aureus; experiment: Antimicrobial activity against vancomycin-intermediate Staphylococcus aureus 1287 measured on day 10 by macrodilution method; settings: Staphylococcus aureus, 1287, 240 h
[20] = test system: Staphylococcus aureus; experiment: Antimicrobial activity against heterogeneous vancomycin-intermediate Staphylococcus aureus 873 after 50 passages by macrodilution method
[21] = test system: Staphylococcus aureus; experiment: Antimicrobial activity against vancomycin-intermediate Staphylococcus aureus 1287 measured on day 50 by macrodilution method
[22] = test system: Staphylococcus aureus; experiment: Antimicrobial activity against heterogeneous vancomycin-intermediate Staphylococcus aureus 873 measured on day 45 by macrodilution method
[23] = test system: Staphylococcus aureus; experiment: Antimicrobial activity against heterogeneous vancomycin-intermediate Staphylococcus aureus 873 measured on day 40 by macrodilution method
[24] = test system: Staphylococcus aureus; experiment: Antimicrobial activity against vancomycin-intermediate Staphylococcus aureus 1287 measured on day 35 by macrodilution method
[25] = test system: Staphylococcus aureus; experiment: Antimicrobial activity against vancomycin-resistant Staphylococcus aureus 510 measured on day 35 by macrodilution method
[26] = test system: Staphylococcus aureus; experiment: Antimicrobial activity against methicillin-resistant Staphylococcus aureus 525 measured on day 50 by macrodilution method
[27] = test system: Staphylococcus aureus; experiment: Antimicrobial activity against methicillin-susceptible Staphylococcus aureus 543 measured after 10 antibiotic-free subculturing by macrodilution method
[28] = test system: Staphylococcus aureus; experiment: Antimicrobial activity against vancomycin-resistant Staphylococcus aureus 510 after 50 passages by macrodilution method
[29] = test system: Staphylococcus aureus; experiment: Antimicrobial activity against methicillin-resistant Staphylococcus aureus 525 measured on day 25 by macrodilution method; settings: Staphylococcus aureus, 525, 600 h
[30] = test system: Staphylococcus aureus; experiment: Antimicrobial activity against methicillin-susceptible Staphylococcus aureus 543 measured on day 15 by macrodilution method; settings: Staphylococcus aureus, 543, 360 h
[31] = test system: Staphylococcus aureus; experiment: Antimicrobial activity against vancomycin-resistant Staphylococcus aureus 510 measured on day 20 by macrodilution method; settings: Staphylococcus aureus, 510, 480 h
[32] = test system: Staphylococcus aureus; experiment: Antimicrobial activity against vancomycin-resistant Staphylococcus aureus 509 measured after 10 antibiotic-free subculturing by macrodilution method
[33] = test system: Staphylococcus aureus; experiment: Antimicrobial activity against methicillin-susceptible Staphylococcus aureus 543 after 15 passages by macrodilution method
[34] = test system: Staphylococcus aureus; experiment: Antimicrobial activity against vancomycin-resistant Staphylococcus aureus 509 measured on day 40 by macrodilution method
[35] = test system: Staphylococcus aureus; experiment: Antimicrobial activity against heterogeneous vancomycin-intermediate Staphylococcus aureus 168 measured on day 25 by macrodilution method; settings: Staphylococcus aureus, 168, 600 h
[36] = test system: Staphylococcus aureus; experiment: Antimicrobial activity against vancomycin-resistant Staphylococcus aureus 510 measured on day 50 by macrodilution method
[37] = test system: Staphylococcus aureus; experiment: Antimicrobial activity against methicillin-resistant Staphylococcus aureus 525 measured on day 35 by macrodilution method
[38] = test system: Staphylococcus aureus; experiment: Antimicrobial activity against methicillin-resistant Staphylococcus aureus 547 measured on day 25 by macrodilution method; settings: Staphylococcus aureus, 547, 600 h
[39] = test system: Staphylococcus aureus; experiment: Antimicrobial activity against methicillin-susceptible Staphylococcus aureus 540 measured on day 20 by macrodilution method; settings: Staphylococcus aureus, 540, 480 h
[40] = test system: Staphylococcus aureus; experiment: Antimicrobial activity against heterogeneous vancomycin-intermediate Staphylococcus aureus 168 measured on day 15 by macrodilution method; settings: Staphylococcus aureus, 168, 360 h
[41] = test system: Staphylococcus aureus; experiment: Antimicrobial activity against vancomycin-intermediate Staphylococcus aureus 1287 measured on day 15 by macrodilution method; settings: Staphylococcus aureus, 1287, 360 h
[42] = test system: Staphylococcus aureus; experiment: Antimicrobial activity against heterogeneous vancomycin-intermediate Staphylococcus aureus 873 measured on day 30 by macrodilution method
[43] = test system: Staphylococcus aureus; experiment: Antimicrobial activity against heterogeneous vancomycin-intermediate Staphylococcus aureus 168 measured on day 20 by macrodilution method; settings: Staphylococcus aureus, 168, 480 h
[44] = test system: Staphylococcus aureus; experiment: Antimicrobial activity against methicillin-resistant Staphylococcus aureus 525 measured on day 20 by macrodilution method; settings: Staphylococcus aureus, 525, 480 h
[45] = test system: Staphylococcus aureus; experiment: Antimicrobial activity against vancomycin-intermediate Staphylococcus aureus 1287 after 50 passages by macrodilution method
[46] = test system: Staphylococcus aureus; experiment: Antimicrobial activity against vancomycin-resistant Staphylococcus aureus 509 measured on day 25 by macrodilution method; settings: Staphylococcus aureus, 509, 600 h
[47] = test system: Staphylococcus aureus; experiment: Antimicrobial activity against vancomycin-intermediate Staphylococcus aureus 1287 measured on day 20 by macrodilution method; settings: Staphylococcus aureus, 1287, 480 h
[48] = test system: Staphylococcus aureus; experiment: Antimicrobial activity against vancomycin-intermediate Staphylococcus aureus 1287 measured on day 30 by macrodilution method
[49] = test system: Staphylococcus aureus; experiment: Antimicrobial activity against heterogeneous vancomycin-intermediate Staphylococcus aureus 168 measured on day 45 by macrodilution method
[50] = test system: Staphylococcus aureus; experiment: Antimicrobial activity against heterogeneous vancomycin-intermediate Staphylococcus aureus 168 measured on day 10 by macrodilution method; settings: Staphylococcus aureus, 168, 240 h
[51] = test system: Staphylococcus aureus; experiment: Antimicrobial activity against vancomycin-intermediate Staphylococcus aureus 1287 measured on day 5 by macrodilution method; settings: Staphylococcus aureus, 1287, 120 h
[52] = test system: Staphylococcus aureus; experiment: Antimicrobial activity against heterogeneous vancomycin-intermediate Staphylococcus aureus 168 after 50 passages by macrodilution method
[53] = test system: Staphylococcus aureus; experiment: Antimicrobial activity against vancomycin-intermediate Staphylococcus aureus 1287 measured on day 45 by macrodilution method
[54] = test system: Staphylococcus aureus; experiment: Antimicrobial activity against methicillin-resistant Staphylococcus aureus 547 measured on day 40 by macrodilution method
[55] = test system: Staphylococcus aureus; experiment: Antimicrobial activity against heterogeneous vancomycin-intermediate Staphylococcus aureus 168 measured on day 50 by macrodilution method
[56] = test system: Staphylococcus aureus; experiment: Antimicrobial activity against vancomycin-resistant Staphylococcus aureus 509 measured on day 20 by macrodilution method; settings: Staphylococcus aureus, 509, 480 h
[57] = test system: Staphylococcus aureus; experiment: Antimicrobial activity against methicillin-resistant Staphylococcus aureus 525 after 50 passages by macrodilution method
[58] = test system: Staphylococcus aureus; experiment: Antimicrobial activity against heterogeneous vancomycin-intermediate Staphylococcus aureus 168 measured on day 35 by macrodilution method
[59] = test system: Staphylococcus aureus; experiment: Antimicrobial activity against vancomycin-resistant Staphylococcus aureus 509 after 28 passages by macrodilution method
[60] = test system: Staphylococcus aureus; experiment: Antimicrobial activity against methicillin-susceptible Staphylococcus aureus 540 measured on day 30 by macrodilution method
[61] = test system: Staphylococcus aureus; experiment: Antimicrobial activity against methicillin-resistant Staphylococcus aureus 547 measured on day 20 by macrodilution method; settings: Staphylococcus aureus, 547, 480 h
[62] = test system: Staphylococcus aureus; experiment: Antimicrobial activity against methicillin-susceptible Staphylococcus aureus 540 measured on day 15 by macrodilution method; settings: Staphylococcus aureus, 540, 360 h
[63] = test system: Staphylococcus aureus; experiment: Antimicrobial activity against methicillin-resistant Staphylococcus aureus 547 measured on day 30 by macrodilution method

CC(=O)NC[C@H]1CN(c2ccc(N3CCOCC3)c(F)c2)C(=O)O1 [LINEZOLID]
MIC [1]: 32 µg/mL (≈ 94.9 µM)
MIC [2]: 8 µg/mL (≈ 23.7 µM)
MIC [3]: 8 µg/mL (≈ 23.7 µM)
MIC [4]: 8 µg/mL (≈ 23.7 µM)
MIC [5]: 32 µg/mL (≈ 94.9 µM)
MIC [6]: 16 µg/mL (≈ 47.4 µM)
MIC [7]: 32 µg/mL (≈ 94.9 µM)
MIC [8]: 16 µg/mL (≈ 47.4 µM)
MIC [9]: 8 µg/mL (≈ 23.7 µM)
MIC [10]: 8 µg/mL (≈ 23.7 µM)
MIC [11]: 16 µg/mL (≈ 47.4 µM)
MIC [12]: 8 µg/mL (≈ 23.7 µM)
MIC [13]: 16 µg/mL (≈ 47.4 µM)
MIC [14]: 16 µg/mL (≈ 47.4 µM)
MIC [15]: 8 µg/mL (≈ 23.7 µM)
MIC [16]: 8 µg/mL (≈ 23.7 µM)
MIC [17]: 8 µg/mL (≈ 23.7 µM)
MIC [18]: 16 µg/mL (≈ 47.4 µM)
MIC [19]: 8 µg/mL (≈ 23.7 µM)
MIC [20]: 8 µg/mL (≈ 23.7 µM)
MIC [21]: 16 µg/mL (≈ 47.4 µM)
MIC [22]: 8 µg/mL (≈ 23.7 µM)
MIC [23]: 8 µg/mL (≈ 23.7 µM)
MIC [24]: 16 µg/mL (≈ 47.4 µM)
MIC [25]: 8 µg/mL (≈ 23.7 µM)
MIC [26]: 16 µg/mL (≈ 47.4 µM)
MIC [27]: 32 µg/mL (≈ 94.9 µM)
MIC [28]: 16 µg/mL (≈ 47.4 µM)
MIC [29]: 16 µg/mL (≈ 47.4 µM)
MIC [30]: 32 µg/mL (≈ 94.9 µM)
MIC [31]: 8 µg/mL (≈ 23.7 µM)
MIC [32]: 32 µg/mL (≈ 94.9 µM)
MIC [33]: 32 µg/mL (≈ 94.9 µM)
MIC [34]: 8 µg/mL (≈ 23.7 µM)
MIC [35]: 8 µg/mL (≈ 23.7 µM)
MIC [36]: 16 µg/mL (≈ 47.4 µM)
MIC [37]: 16 µg/mL (≈ 47.4 µM)
MIC [38]: 16 µg/mL (≈ 47.4 µM)
MIC [39]: 16 µg/mL (≈ 47.4 µM)
MIC [40]: 8 µg/mL (≈ 23.7 µM)
MIC [41]: 8 µg/mL (≈ 23.7 µM)
MIC [42]: 16 µg/mL (≈ 47.4 µM)
MIC [43]: 8 µg/mL (≈ 23.7 µM)
MIC [44]: 16 µg/mL (≈ 47.4 µM)
MIC [45]: 16 µg/mL (≈ 47.4 µM)
MIC [46]: 16 µg/mL (≈ 47.4 µM)
MIC [47]: 8 µg/mL (≈ 23.7 µM)
MIC [48]: 16 µg/mL (≈ 47.4 µM)
MIC [49]: 8 µg/mL (≈ 23.7 µM)
MIC [50]: 8 µg/mL (≈ 23.7 µM)
MIC [51]: 8 µg/mL (≈ 23.7 µM)
MIC [52]: 16 µg/mL (≈ 47.4 µM)
MIC [53]: 16 µg/mL (≈ 47.4 µM)
MIC [54]: 16 µg/mL (≈ 47.4 µM)
MIC [55]: 16 µg/mL (≈ 47.4 µM)
MIC [56]: 8 µg/mL (≈ 23.7 µM)
MIC [57]: 16 µg/mL (≈ 47.4 µM)
MIC [58]: 8 µg/mL (≈ 23.7 µM)
MIC [59]: 16 µg/mL (≈ 47.4 µM)
MIC [60]: 16 µg/mL (≈ 47.4 µM)
MIC [61]: 8 µg/mL (≈ 23.7 µM)
MIC [62]: 16 µg/mL (≈ 47.4 µM)
MIC [63]: 16 µg/mL (≈ 47.4 µM)
